The target in the test is recombinant CYP2D6 (Homo sapiens, UniProt P10635). Kind of test: Bufuralol 1'-hydroxylase assay (CYP2D6) IC50 determination.
The mark [1] stands for this setting: CYP2D6 IC50, recombinant CYP2D6 0.1 mg/ml, bufuralol 3.4 μM, 37° C., pH 7.4, Table I.
[2] abbreviates: IC50 Observed, test set of 8 compounds, in vitro values as measured in Example 1, Table II.

SMILES strings stand for the structures. Where two headings read alike, the source gives them in different places.

recombinant CYP2D6, sequence (P10635 whole entry): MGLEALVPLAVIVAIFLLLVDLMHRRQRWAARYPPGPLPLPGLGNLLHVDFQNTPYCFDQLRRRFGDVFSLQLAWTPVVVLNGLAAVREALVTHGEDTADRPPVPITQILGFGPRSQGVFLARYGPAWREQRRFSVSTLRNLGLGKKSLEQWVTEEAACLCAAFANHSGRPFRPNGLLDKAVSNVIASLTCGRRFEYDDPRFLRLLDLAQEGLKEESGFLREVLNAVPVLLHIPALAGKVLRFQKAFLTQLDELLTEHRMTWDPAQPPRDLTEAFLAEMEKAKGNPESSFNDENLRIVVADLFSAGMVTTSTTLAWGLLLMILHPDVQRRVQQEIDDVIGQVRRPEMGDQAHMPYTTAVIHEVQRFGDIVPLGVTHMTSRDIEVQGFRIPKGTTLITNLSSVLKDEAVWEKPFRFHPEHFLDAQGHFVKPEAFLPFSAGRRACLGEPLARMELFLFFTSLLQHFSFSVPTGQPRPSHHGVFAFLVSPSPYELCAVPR
Procedure: Using a bufuralol-hydroxylation as a marker for CYP2D6 catalytic activity, the inhibitory effect of various NK-1 antagonists were assessed in vitro. The inhibitor compounds of Table I were assayed for CYP2D6 activity by the following procedure.
Two separate plates were prepared for the substrate and for dilutions of inhibitor. The contents of the two plates were combined in a 1:1 ratio to make a master plate of substrate and inhibitor solutions (S/I plate). The remaining assay ingredients, a combination of CYP2D6 (0.1 mg/ml, 0.12 pmol/ml, Panvera, Madison Wis.), NADPH (1.2 mM) and buffer (100 mM sodium phosphate, pH 7.4), are prepared on ice and transferred to a polyvinyl reaction plate (RXN plate). […] The RXN plate is pre-warmed to 37° C. using a MJ Research Model PTC-100 automated thermal controller, and the reaction is initiated by addition of an aliquot from the S/I plate. The reaction is allowed to proceed at 37° C. before being terminated using 70% perchloric acid (50 μl). HPLC analysis is preceded by filtration of (150μl) using a Millipore multiscreen-MAHA mixed cellulose esters, triton free, non-sterile plate (Millipore Co., Bedford, Mass.).
The reactions were then terminated as described above and Multiscreen plates were then used to filter the samples by slowly drawing them through the filter plate by a weak vacuum and collecting them in a polypropylene 96-well plate. The plate was mixed by drawing up and expelling well contents twice with the Soken pipettor. A 20 μl volume of each sample was injected for HPLC analysis every 2.5 minutes. When required, concentrations of the inhibitor were adjusted in a repeat experiment to cover concentration ranges above and below the reported IC50 value.
The mobile phase consisted of acetonitrile and water 20/80 v/v containing triethylamine (1 ml/liter) and phosphoric acid (600 l/liter) at a flow rate of 0.5 ml/min (analytical side) and 1.8 ml/min (wash side) using a column switching format. HPLC analysis was performed with two alternating HPLC columns (column A and column B) attached to a Valco E36 valve. Between 0 and 5.2 minutes of the run time, column A analyses metabolite peak of sample #1. […] During the wash cycle, the flow to column A is increased to 1.8 ml/min. […] A Phenomex primesphere C1 8-MC, 5 μm, 30×2 mm column (Phenomenex, Torrance, Calif.) was used. The retention time of the 1′-hydroxybufuralol (carbinol) metabolite was 1.0 minute. The peak area of the carbinol metabolite was determined in the absence of inhibitor and compared to that measured in the presence of inhibitor. The percent of control values versus inhibitor concentration were fitted to a Hill equation using non-linear curve fitting methods, namely, Deltagraph (DeltaPoint, Inc., Monterey, Calif.).

As usually defined, the IC50 is the concentration that inhibits the measured activity by half. With `O=c1[nH]nc(CN2CCO[C@H](OCc3cc(C(F)(F)F)cc(C(F)(F)F)c3)[C@@H]2c2ccccc2)[nH]1` [Compound XXIV], the IC50 reads like this: under setting [1], 7100 nM; under setting [2], 7100 nM. `C[C@@H](O[C@H]1OCCN(Cc2n[nH]c(=O)[nH]2)[C@H]1c1ccc(F)cc1)c1cc(C(F)(F)F)cc(C(F)(F)F)c1` [Compound XXI]: under setting [1], the IC50 amounted to 18400 nM. Same read-out and setting: next, `COc1ccccc1[C@H]1CC[C@]2(CCCN[C@@H]2c2ccccc2)NC1` [Compound XX]: 21 nM; `COc1ccc(OC)c(CN[C@H]2CCCN[C@H]2c2ccccc2)c1` [Compound X]: 370 nM. With `COc1ccccc1CN[C@@H]1C2CCN(CC2)[C@@H]1C(c1ccccc1)c1ccccc1` [III], the IC50 under setting [1] was 170 nM.

Turning to `COc1ccccc1CN[C@@H]1CCCC[C@@H]1C(c1ccccc1)c1ccccc1` [II], the IC50 is, setting by setting: under setting [1], 16 nM; under setting [2], 16 nM. On to `COc1ccccc1CN[C@H]1CCCN[C@H]1c1ccccc1` [IV], for which the IC50 came to 200 nM under setting [1] and 21 nM under setting [2].

As for `COc1ccccc1CN[C@@H]1[C@H]2CCC[C@H]2N[C@@H]1c1ccccc1` [IX], the IC50 under setting [1] worked out at 130 nM. In the case of `Clc1ccccc1CN[C@@H]1C2CCN(CC2)[C@@H]1C(c1ccccc1)c1ccccc1` [I], the IC50 was found to be 59 nM. In the case of `COc1ccccc1CN[C@@H]1C2CC3CCCC(C2)N3[C@@H]1C(c1ccccc1)c1ccccc1` [VIII], the IC50 under setting [1] is 22 nM.

As to `Clc1ccccc1CN[C@@H]1C2CC3CCC(C2)N3[C@@H]1C(c1ccccc1)c1ccccc1` [VII], the IC50 under setting [1] was 65 nM. On to `c1ccc(CN[C@@H]2C3CC4CCC(C3)N4[C@@H]2C(c2ccccc2)c2ccccc2)cc1` [VI], for which the IC50 was determined as 13 nM under setting [1] and 13 nM under setting [2]. Take `COc1ccccc1CN[C@@H]1C2CC3CCC(C2)N3[C@@H]1C(c1ccccc1)c1ccccc1` [V]: the IC50 under setting [1] was determined as 41 nM. For `COc1ccccc1CC(=N)N1C[C@H]2C(=O)CCC(c3ccccc3)(c3ccccc3)[C@H]2C1` [XIII], the IC50 under setting [1] came to 13 nM.

In the case of `COc1ccccc1CN[C@@H]1C2C3CCCC2CN(C3)[C@@H]1C(c1ccccc1)c1ccccc1` [XII], under setting [1], the IC50 was found to be 6.7 nM.

With `CC(C)Oc1ccccc1CN[C@H]1CCCN[C@H]1c1ccccc1` [XIV], the IC50 worked out at 38 nM under setting [1] and 38 nM under setting [2].

Turning to `CC(C)Oc1ccc(OC(F)(F)F)cc1CN[C@H]1CCCN[C@H]1c1ccccc1` [XIX], the IC50 was 47 nM. As for `Clc1ccccc1CN[C@@H]1C2C3CCCC2CN(C3)[C@@H]1C(c1ccccc1)c1ccccc1` [XI], the IC50 turned out to be 16 nM under setting [1] and 16 nM under setting [2].

On to `CCOc1ccc(OC(F)(F)F)cc1CN[C@H]1CCCN[C@H]1c1ccccc1` [XVIII], for which the IC50 under setting [1] came to 45 nM. With `FC(F)(F)Oc1ccccc1CN[C@H]1CCCN[C@H]1c1ccccc1` [XVII], under setting [1], the IC50 stood at 40 nM.

As for `FC(F)Oc1ccccc1CN[C@H]1CCCN[C@H]1c1ccccc1` [XVI], under setting [1], the IC50 worked out at 74 nM.

`FC(F)(F)c1cc(CO[C@H]2OCCN(Cc3nnc[nH]3)[C@H]2c2ccccc2)cc(C(F)(F)F)c1` [XXIII]: the IC50 under setting [1] came to 8800 nM.

For the molecule `COc1ccc(-n2nnnc2C(F)(F)F)cc1CN[C@H]1CCCN[C@H]1c1ccccc1` [XXVI], the IC50 under setting [1] is 530 nM. In the case of `COc1ccc(-n2cnnn2)cc1CN[C@H]1CCCN[C@H]1c1ccccc1` [XXV], the IC50 runs as follows: under setting [1], 320 nM; under setting [2], 320 nM.
